Laboratory results: US12195482B1 (Arcus Biosciences, Inc., priority 2022, dated 2025)

Assays:
recombinant human MER = target: T1, recombinant human MER (Homo sapiens, UniProt Q12866); experiment: Biochemical potency, HTRF KinEASE-TK kinase assay; settings: 1 nM MER, 700 μM ATP
T1 construct: purchased Invitrogen
T1 sequence (Q12866 21-999): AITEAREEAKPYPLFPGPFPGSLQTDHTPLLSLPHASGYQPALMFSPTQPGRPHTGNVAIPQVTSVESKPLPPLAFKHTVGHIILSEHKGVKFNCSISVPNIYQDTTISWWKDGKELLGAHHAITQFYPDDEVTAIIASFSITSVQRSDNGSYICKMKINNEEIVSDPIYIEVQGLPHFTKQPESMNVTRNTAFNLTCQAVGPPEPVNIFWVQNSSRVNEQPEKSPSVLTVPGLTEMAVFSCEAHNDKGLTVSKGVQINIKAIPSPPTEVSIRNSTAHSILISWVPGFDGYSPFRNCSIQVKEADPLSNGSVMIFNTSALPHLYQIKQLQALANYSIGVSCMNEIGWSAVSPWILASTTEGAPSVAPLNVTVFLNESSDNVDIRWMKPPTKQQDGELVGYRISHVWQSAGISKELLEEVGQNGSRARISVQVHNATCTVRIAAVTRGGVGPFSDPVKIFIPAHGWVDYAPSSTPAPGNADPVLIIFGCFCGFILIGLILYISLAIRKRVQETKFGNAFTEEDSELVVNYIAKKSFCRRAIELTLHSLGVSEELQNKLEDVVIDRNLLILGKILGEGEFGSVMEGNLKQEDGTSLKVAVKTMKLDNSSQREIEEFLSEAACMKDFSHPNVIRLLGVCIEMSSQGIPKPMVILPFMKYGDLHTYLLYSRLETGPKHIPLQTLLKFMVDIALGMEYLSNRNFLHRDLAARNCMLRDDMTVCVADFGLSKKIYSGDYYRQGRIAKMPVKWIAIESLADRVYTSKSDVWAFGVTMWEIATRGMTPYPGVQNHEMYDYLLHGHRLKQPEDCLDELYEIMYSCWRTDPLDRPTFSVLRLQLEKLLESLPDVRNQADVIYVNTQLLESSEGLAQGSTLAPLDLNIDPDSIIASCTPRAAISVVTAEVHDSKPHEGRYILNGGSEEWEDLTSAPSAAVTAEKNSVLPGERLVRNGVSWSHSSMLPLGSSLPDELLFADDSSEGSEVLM
Summary of the method: (§1)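 Compounds preincubated 1 h at RT with enzyme in 50 mM HEPES pH 7.4, 10 mM MgCl2, 0.01% BSA, 1 mM DTT; reactions then ran 2 h at RT with 5 nM AXL or 1 nM TYRO3/MER, 800 nM TK substrate-biotin, 700 μM ATP, 1% DMSO. HTRF 665/620 ratio read; percent activity calculated.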

recombinant human TYRO3 = target: T2, recombinant human TYRO3 (Homo sapiens, UniProt Q06418); experiment: Biochemical potency, HTRF KinEASE-TK kinase assay; settings: 1 nM TYRO3, 700 μM ATP
T2 construct: purchased Invitrogen
T2 sequence (Q06418 41-890): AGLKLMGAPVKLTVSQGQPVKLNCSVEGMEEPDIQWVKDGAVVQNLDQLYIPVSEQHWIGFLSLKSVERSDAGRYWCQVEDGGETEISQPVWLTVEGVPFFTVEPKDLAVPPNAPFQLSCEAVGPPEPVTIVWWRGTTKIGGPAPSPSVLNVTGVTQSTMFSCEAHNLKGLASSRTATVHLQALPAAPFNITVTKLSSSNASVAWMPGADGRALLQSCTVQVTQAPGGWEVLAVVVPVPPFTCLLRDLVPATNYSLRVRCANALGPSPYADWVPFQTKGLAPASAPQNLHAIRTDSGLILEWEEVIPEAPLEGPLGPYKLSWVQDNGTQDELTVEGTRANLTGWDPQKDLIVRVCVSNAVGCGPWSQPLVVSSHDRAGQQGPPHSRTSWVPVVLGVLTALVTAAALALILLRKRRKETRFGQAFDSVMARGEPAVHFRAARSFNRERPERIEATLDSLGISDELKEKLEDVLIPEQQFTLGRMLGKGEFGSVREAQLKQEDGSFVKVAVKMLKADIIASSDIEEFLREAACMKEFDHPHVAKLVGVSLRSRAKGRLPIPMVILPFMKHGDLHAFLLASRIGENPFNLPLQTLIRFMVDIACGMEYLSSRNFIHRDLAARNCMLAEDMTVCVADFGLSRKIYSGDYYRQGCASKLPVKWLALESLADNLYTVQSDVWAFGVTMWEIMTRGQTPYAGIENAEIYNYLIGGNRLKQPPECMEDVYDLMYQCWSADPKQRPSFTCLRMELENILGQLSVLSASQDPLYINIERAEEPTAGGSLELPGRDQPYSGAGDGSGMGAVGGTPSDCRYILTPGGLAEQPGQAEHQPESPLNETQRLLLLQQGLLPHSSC
Summary of the method: as §1

c1cnc(-c2ccc(-c3n[nH]c4ncc(-c5ccc6c(c5)CC[C@@H](N5C7COCC5C7)CC6)cc34)cc2)c(O[C@@H]2CCOC2)c1 [Example 104, 6-[(7S)-2-[3-(4-{3-[(3R)—Oxolan-3-yloxy]pyridin-2-yl}phenyl)-1H-pyrazolo[3,4-b]pyridin-5-yl]-6,7,8,9-tetrahydro-5H-benzo[7]annulen-7-yl]-3-oxa-6-azabicyclo[3.1.1]heptane]
IC50 (recombinant human MER): 100 to 1000 nM | IC50 (recombinant human TYRO3): 100 to 1000 nM

c1ccc(-c2ccc(-c3c[nH]c4ncc(-c5ccc6c(c5)CC[C@@H](N[C@H]5CCCOC5)CC6)cc34)cc2)nc1 [Example 32, (3S)—N-[(7S)-3-[3-(4-Pyridin-2-ylphenyl)-1H-pyrrolo[2,3-b]pyridin-5-yl]-6,7,8,9-tetrahydro-5H-benzo[7]annulen-7-yl]oxan-3-amine]
IC50 (recombinant human MER): 100 to 1000 nM | IC50 (recombinant human TYRO3): 100 to 1000 nM

O=c1ccccn1-c1ccc(-c2n[nH]c3ncc(-c4ccc5c(c4)CC[C@@H](N4C6COCC4C6)CC5)cc23)cc1 [Example 31, 1-[4-[5-[(7S)-7-(3-Oxa-6-azabicyclo[3.1.1]heptan-6-yl)-6,7,8,9-tetrahydro-5H-benzo[7]annulen-3-yl]-1H-pyrazolo[3,4-b]pyridin-3-yl]phenyl]pyridin-2-one]
IC50 (recombinant human MER): > 1000 nM | IC50 (recombinant human TYRO3): > 1000 nM

CS(=O)(=O)c1cccnc1-c1ccc(-c2c[nH]c3ncc(-c4ccc5c(c4)CC[C@@H](N4C6COCC4C6)CC5)cc23)cc1 [Example 102, 6-[(7S)-2-{3-[4-(3-Methanesulfonylpyridin-2-yl)phenyl]-1H-pyrrolo[2,3-b]pyridin-5-yl}-6,7,8,9-tetrahydro-5H-benzo[7]annulen-7-yl]-3-oxa-6-azabicyclo[3.1.1]heptane]
IC50 (recombinant human MER): 100 to 1000 nM | IC50 (recombinant human TYRO3): < 100 nM

Cc1cc(F)cnc1-c1ccc(-c2n[nH]c3ncc(-c4ccc5c(c4)CC[C@@H](N4C6COCC4C6)CC5)cc23)cc1 [Example 28, 6-[(7S)-3-[3-[4-(5-Fluoro-3-methylpyridin-2-yl)phenyl]-1H-pyrazolo[3,4-b]pyridin-5-yl]-6,7,8,9-tetrahydro-5H-benzo[7]annulen-7-yl]-3-oxa-6-azabicyclo[3.1.1]heptane]
IC50 (recombinant human MER): 100 to 1000 nM | IC50 (recombinant human TYRO3): < 100 nM

Cn1nncc1-c1ccc(-c2n[nH]c3ncc(-c4ccc5c(c4)CC[C@@H](N4C6COCC4C6)CC5)cc23)cc1 [Example 13, 6-[(7S)-2-{3-[4-(1-Methyl-1H-1,2,3-triazol-5-yl)phenyl]-1H-pyrazolo[3,4-b]pyridin-5-yl}-6,7,8,9-tetrahydro-5H-benzo[7]annulen-7-yl]-3-oxa-6-azabicyclo[3.1.1]heptane]
IC50 (recombinant human MER): > 1000 nM | IC50 (recombinant human TYRO3): > 1000 nM

CN(C)C(=O)c1cccc(-c2ccc(-c3n[nH]c4ncc(-c5ccc6c(c5)CC[C@@H](N5C7COCC5C7)CC6)cc34)cc2)n1 [Example 94, N,N-Dimethyl-6-(4-{5-[(7S)-7-{3-oxa-6-azabicyclo[3.1.1]heptan-6-yl}-6,7,8,9-tetrahydro-5H-benzo[7]annulen-2-yl]-2H-pyrazolo[3,4-b]pyridin-3-yl}phenyl)pyridine-2-carboxamide]
IC50 (recombinant human MER): > 1000 nM | IC50 (recombinant human TYRO3): > 1000 nM

c1cnc(-c2ccc(-c3c[nH]c4ncc(-c5ccc6c(c5)CC[C@@H](N5C7COCC5C7)CC6)cc34)cc2)c(C2CC2)c1 [Example 178, 6-[(7S)-2-{3-[4-(3-Cyclopropylpyridin-2-yl)phenyl]-1H-pyrrolo[2,3-b]pyridin-5-yl}-6,7,8,9-tetrahydro-5H-benzo[7]annulen-7-yl]-3-oxa-6-azabicyclo[3.1.1]heptane]
IC50 (recombinant human MER): 100 to 1000 nM | IC50 (recombinant human TYRO3): 100 to 1000 nM

Cc1ccccc1-c1ccc(-c2n[nH]c3ncc(-c4ccc5c(c4)CC[C@@H](N4C6COCC4C6)CC5)cc23)nc1 [Example 98, 6-[(7S)-2-{3-[5-(2-Methylphenyl)pyridin-2-yl]-1H-pyrazolo[3,4-b]pyridin-5-yl}-6,7,8,9-tetrahydro-5H-benzo[7]annulen-7-yl]-3-oxa-6-azabicyclo[3.1.1]heptane]
IC50 (recombinant human MER): > 1000 nM | IC50 (recombinant human TYRO3): > 1000 nM

Cc1ccnc(-c2ccc(-c3n[nH]c4ncc(-c5ccc6c(c5)CC[C@@H](N5C7COCC5C7)CC6)cc34)cc2)c1C [Example 118, 6-[(7S)-2-{3-[4-(3,4-Dimethylpyridin-2-yl)phenyl]-1H-pyrazolo[3,4-b]pyridin-5-yl}-6,7,8,9-tetrahydro-5H-benzo[7]annulen-7-yl]-3-oxa-6-azabicyclo[3.1.1]heptane]
IC50 (recombinant human MER): 100 to 1000 nM | IC50 (recombinant human TYRO3): < 100 nM

CN(C)C(=O)c1cccnc1-c1ccc(-c2c[nH]c3ncc(-c4ccc5c(c4)CC[C@@H](N4C6COCC4C6)CC5)cc23)cc1 [Example 165, N,N-Dimethyl-2-(4-{5-[(7S)-7-{3-oxa-6-azabicyclo[3.1.1]heptan-6-yl}-6,7,8,9-tetrahydro-5H-benzo[7]annulen-2-yl]-1H-pyrrolo[2,3-b]pyridin-3-yl}phenyl)pyridine-3-carboxamide]
IC50 (recombinant human MER): 100 to 1000 nM | IC50 (recombinant human TYRO3): < 100 nM

CC(C)(O)c1ccccc1-c1ccc(-c2c[nH]c3ncc(-c4ccc5c(c4)CC[C@@H](N4C6COCC4C6)CC5)cc23)cn1 [Example 114, 2-[2-(5-{5-[(7S)-7-{3-Oxa-6-azabicyclo[3.1.1]heptan-6-yl}-6,7,8,9-tetrahydro-5H-benzo[7]annulen-2-yl]-1H-pyrrolo[2,3-b]pyridin-3-yl}pyridin-2-yl)phenyl]propan-2-ol]
IC50 (recombinant human MER): 100 to 1000 nM | IC50 (recombinant human TYRO3): 100 to 1000 nM

O=C1CCCN1c1cccnc1-c1ccc(-c2n[nH]c3ncc(-c4ccc5c(c4)CC[C@@H](N4C6COCC4C6)CC5)cc23)cc1 [Example 177, 1-[2-(4-{5-[(7S)-7-{3-Oxa-6-azabicyclo[3.1.1]heptan-6-yl}-6,7,8,9-tetrahydro-5H-benzo[7]annulen-2-yl]-1H-pyrazolo[3,4-b]pyridin-3-yl}phenyl)pyridin-3-yl]pyrrolidin-2-one]
IC50 (recombinant human MER): 100 to 1000 nM | IC50 (recombinant human TYRO3): 100 to 1000 nM

Cc1cncnc1-c1ccc(-c2n[nH]c3ncc(-c4ccc5c(c4)CC[C@@H](N4C6COCC4C6)CC5)cc23)cc1 [Example 174, 6-[(7S)-2-{3-[4-(5-Methylpyrimidin-4-yl)phenyl]-1H-pyrazolo[3,4-b]pyridin-5-yl}-6,7,8,9-tetrahydro-5H-benzo[7]annulen-7-yl]-3-oxa-6-azabicyclo[3.1.1]heptane]
IC50 (recombinant human MER): < 100 nM | IC50 (recombinant human TYRO3): < 100 nM

Cc1nn(C)nc1-c1ccc(-c2n[nH]c3ncc(-c4ccc5c(c4)CC[C@@H](N4C6COCC4C6)CC5)cc23)cc1 [Example 14, 6-[(7S)-2-{3-[4-(2,5-Dimethyl-2H-1,2,3-triazol-4-yl)phenyl]-1H-pyrazolo[3,4-b]pyridin-5-yl}-6,7,8,9-tetrahydro-5H-benzo[7]annulen-7-yl]-3-oxa-6-azabicyclo[3.1.1]heptane]
IC50 (recombinant human MER): 100 to 1000 nM | IC50 (recombinant human TYRO3): < 100 nM

Cc1cccc(-c2ccc(-c3n[nH]c4ncc(-c5ccc6c(c5)CC[C@@H](N5C7COCC5C7)CC6)cc34)cc2)n1 [Example 116, 6-[(7S)-2-{3-[4-(6-Methylpyridin-2-yl)phenyl]-1H-pyrazolo[3,4-b]pyridin-5-yl}-6,7,8,9-tetrahydro-5H-benzo[7]annulen-7-yl]-3-oxa-6-azabicyclo[3.1.1]heptane]
IC50 (recombinant human MER): 100 to 1000 nM | IC50 (recombinant human TYRO3): 100 to 1000 nM
